Data taken from patent US8551984B2, “Aminopyrimidines as SYK inhibitors” (Merck Sharp & Dohme Corp., priority 2009, dated 2013).
pIC50: −log10 of the molar value.

biological target: rhSYK (Homo sapiens, UniProt P43405); experiment: biochemical; settings: not given

Row | Compound | pIC50
1 | Cc1cc(Nc2ncc(F)c(C)n2)cc(-c2cnc(C3(O)CCC4(CC3)OCCO4)s2)c1 [Example 116B-1] | > 7.00
2 | Cc1cc(Nc2ncc(Cl)c(C)n2)cc(-c2cnc(C3(O)CCC4(CC3)OCCO4)s2)c1 [Example 116B-2] | > 7.00

Second part, the compound after the results:

Row | pIC50 | Compound
3 | > 7.00 | Cc1cc(Nc2nccc(C(F)(F)F)n2)cc(-c2cnc(C(C)(O)c3ccc(C(N)=O)cc3)s2)c1 (single isomer, unassigned) [Example 117-20]
4 | > 7.00 | Cc1cc(Nc2nccc(C(F)(F)F)n2)cc(-c2cnc(C3(O)CCC(C(N)=O)C3)s2)c1 (single isomer, unassigned) [Example 119-2]
5 | > 7.00 | Cc1cc(Nc2nccc(C)n2)cc(-c2cnc(C3(O)CCC(C(N)=O)C(C)C3)s2)c1 (single isomer, unassigned) [Example 119-5]
6 | > 7.00 | Cc1cc(Nc2nccc(C(F)(F)F)n2)cc(-c2cnc(C3(O)CCC(C(N)=O)C(C)C3)s2)c1 (single isomer, unassigned) [Example 119-111]
7 | > 7.00 | Cc1cc(Nc2nccc(C(F)(F)F)n2)cc(-c2cnc(C3(O)CC(C(N)=O)C3)s2)c1 (stereo not shown) [Example 117-1]
8 | > 7.00 | Cc1cc(Nc2nccc(C)n2)cc(-c2cnc(C3(O)CCC(C(N)=O)C4CCCCC43)s2)c1 (stereo not shown) [Example 117-2]
9 | > 7.00 | Cc1cc(Nc2nccc(C(F)(F)F)n2)cc(-c2cnc([C@H]3CC[C@@H](C(N)=O)CC3)s2)c1 [Example 117-4]
10 | > 7.00 | Cc1cc(Nc2nccc(C(F)(F)F)n2)cc(-c2cnc([C@H]3CC[C@H](C(N)=O)CC3)s2)c1 [Example 117-5]
11 | > 7.00 | Cc1cc(Nc2nccc(C(F)(F)F)n2)cc(-c2cnc(C3(O)CCN(c4ncccc4C(N)=O)CC3)s2)c1 [Example 117-6]
12 | > 7.00 | Cc1cc(Nc2nccc(C(F)(F)F)n2)cc(-c2cnc(C3(O)CCN(CCCC(N)=O)CC3)s2)c1 [Example 117-7]
13 | > 7.00 | Cc1cc(Nc2nccc(C(F)(F)F)n2)cc(-c2cnc(C3(O)CCC(CC(N)=O)CC3)s2)c1 (stereo not shown) [Example 117-8]
14 | > 7.00 | Cc1cc(Nc2nccc(C(F)(F)F)n2)cc(-c2cnc([C@]3(O)CC[C@@H](CCC(N)=O)CC3)s2)c1 [Example 117-11]
15 | > 7.00 | Cc1cc(Nc2nccc(C(F)(F)F)n2)cc(-c2cnc([C@]3(O)CC[C@H](CCC(N)=O)CC3)s2)c1 [Example 117-12]
16 | > 7.00 | Cc1cc(Nc2nccc(C(C)C)n2)cc(-c2cnc(C3(O)CCCN(C(=O)CC(N)=O)CC3)s2)c1 (stereo not shown) [Example 117-13]
17 | > 7.00 | Cc1cc(Nc2nccc(OCCO)n2)cc(-c2cnc(CCC(N)=O)s2)c1 [Example 117-14]
18 | > 7.00 | CCC(CO)NC(=O)CCc1ncc(-c2cc(C)cc(Nc3nccc(C(F)(F)F)n3)c2)s1 (stereo not shown) [Example 117-15]
19 | > 7.00 | CCOC(=O)CNC(=O)CCc1ncc(-c2cc(C)cc(Nc3nccc(C(F)(F)F)n3)c2)s1 [Example 117-16]
20 | > 7.00 | COC(=O)C(C)NC(=O)CCc1ncc(-c2cc(C)cc(Nc3nccc(C(F)(F)F)n3)c2)s1 (stereo not shown) [Example 117-17]
21 | > 7.00 | COC(=O)CCNC(=O)CCc1ncc(-c2cc(C)cc(Nc3nccc(C(F)(F)F)n3)c2)s1 [Example 117-18]
22 | 6.00 to 7.00 | COC(=O)C(CC(C)C)NC(=O)CCc1ncc(-c2cc(C)cc(Nc3nccc(C(F)(F)F)n3)c2)s1 (stereo not shown) [Example 117-19]
23 | > 7.00 | Cc1cc(Nc2nccc(C(F)(F)F)n2)cc(-c2cnc([C@@]3(O)CC[C@H](C(N)=O)C(C)(C)C3)s2)c1Br [Example 117-22]
24 | > 7.00 | Cc1cc(Nc2nccc(C)n2)cc(-c2cnc(C3(O)CCC(C(N)=O)C(C)(C)C3)s2)c1 (stereo not shown) [Example 119-7]
25 | > 7.00 | Cc1cc(Nc2nccc(C(C)C)n2)cc(-c2cnc([C@]3(O)CC[C@@H](C(N)=O)CC3)s2)c1 [Example 119-8]

Row | pIC50 | Compound
26 | > 7.00 | Cc1cc(Nc2nccc(C(C)(C)C)n2)cc(-c2cnc(C3(O)CCC(C(N)=O)CC3)s2)c1 (stereo not shown) [Example 119-9]
27 | > 7.00 | Cc1cc(Nc2nccc(C(C)C)n2)cc(-c2cnc(C3(O)CCC(C(N)=O)C(C)C3)s2)c1 (stereo not shown) [Example 119-10]
28 | > 7.00 | Cc1cc(Nc2nccc(OCCO)n2)cc(-c2cnc(C3(O)CCC(C(N)=O)CC3)s2)c1 (stereo not shown) [Example 119-14]
29 | > 7.00 | CNC(=O)C1CCC(O)(c2ncc(-c3cc(C)cc(Nc4nccc(C(F)(F)F)n4)c3)s2)CC1 (stereo not shown) [Example 119-15]
30 | > 7.00 | Cc1cc(Nc2nccc(C(F)(F)F)n2)cc(-c2cnc([C@]3(O)CC[C@@H](C(=O)N(C)C)CC3)s2)c1 [Example 119-17]
31 | > 7.00 | Cc1cc(Nc2nccc(C(F)(F)F)n2)cc(-c2cnc(C3(O)CCC(C(=O)NCC#N)CC3)s2)c1 (stereo not shown) [Example 119-18]
32 | > 7.00 | Cc1cc(Nc2nccc(C(F)(F)F)n2)cc(-c2cnc([C@]3(O)CC[C@@H](C(=O)N4CCC4)CC3)s2)c1 [Example 119-19]
33 | > 7.00 | Cc1cc(Nc2nccc(C(F)(F)F)n2)cc(-c2cnc([C@]3(O)CC[C@@H](C(=O)NC(C)C)CC3)s2)c1 [Example 119-20]
34 | > 7.00 | CCN(C)C(=O)[C@H]1CC[C@](O)(c2ncc(-c3cc(C)cc(Nc4nccc(C(F)(F)F)n4)c3)s2)CC1 [Example 119-21]
35 | > 7.00 | Cc1cc(Nc2nccc(C(F)(F)F)n2)cc(-c2cnc([C@]3(O)CC[C@@H](C(=O)NCCO)CC3)s2)c1 [Example 119-22]
36 | > 7.00 | Cc1cc(Nc2nccc(C(F)(F)F)n2)cc(-c2cnc([C@]3(O)CC[C@@H](C(=O)NCC4CC4)CC3)s2)c1 [Example 119-23]
37 | > 7.00 | Cc1cc(Nc2nccc(C(F)(F)F)n2)cc(-c2cnc([C@]3(O)CC[C@@H](C(=O)N4CCCC4)CC3)s2)c1 [Example 119-24]
38 | > 7.00 | COCCNC(=O)[C@H]1CC[C@](O)(c2ncc(-c3cc(C)cc(Nc4nccc(C(F)(F)F)n4)c3)s2)CC1 [Example 119-25]
39 | > 7.00 | Cc1cc(Nc2nccc(C(F)(F)F)n2)cc(-c2cnc([C@]3(O)CC[C@@H](C(=O)NCC(=O)O)CC3)s2)c1 [Example 119-26]
40 | > 7.00 | Cc1cc(Nc2nccc(C(F)(F)F)n2)cc(-c2cnc([C@]3(O)CC[C@@H](C(=O)Nc4ncc[nH]4)CC3)s2)c1 [Example 119-27]
41 | > 7.00 | Cc1cc(Nc2nccc(C(F)(F)F)n2)cc(-c2cnc(C3(O)CCC(C(=O)N(C)CCC#N)CC3)s2)c1 (stereo not shown) [Example 119-28]
42 | > 7.00 | Cc1cc(Nc2nccc(C(F)(F)F)n2)cc(-c2cnc([C@]3(O)CC[C@@H](C(=O)N4CCOCC4)CC3)s2)c1 [Example 119-29]
43 | > 7.00 | Cc1cc(Nc2nccc(C(F)(F)F)n2)cc(-c2cnc(C3(O)CCC(C(=O)NCCC(N)=O)CC3)s2)c1 (stereo not shown) [Example 119-30]
44 | > 7.00 | COCCCNC(=O)[C@H]1CC[C@](O)(c2ncc(-c3cc(C)cc(Nc4nccc(C(F)(F)F)n4)c3)s2)CC1 [Example 119-31]
45 | > 7.00 | Cc1cc(Nc2nccc(C(F)(F)F)n2)cc(-c2cnc(C3(O)CCC(C(=O)NCC(O)CO)CC3)s2)c1 (stereo not shown) [Example 119-32]
46 | > 7.00 | Cc1cc(Nc2nccc(C(F)(F)F)n2)cc(-c2cnc(C3(O)CCC(C(=O)Nc4ccncc4)CC3)s2)c1 (stereo not shown) [Example 119-34]
47 | > 7.00 | Cc1cc(Nc2nccc(C(F)(F)F)n2)cc(-c2cnc([C@]3(O)CC[C@@H](C(=O)Nc4ccccn4)CC3)s2)c1 [Example 119-35]

biological target: recombinant human SYK (GST-hSYK fusion protein) (Homo sapiens, UniProt P43405); experiment: not given; settings: read-out: rhSYK Activity; Table 113A

Row | pIC50 | Compound
48 | > 7.00 | CCOC(=O)C1CCC(O)(c2ncc(-c3cc(C)cc(Nc4nccc(C)n4)c3)s2)C(C)C1C (stereo not shown) [Example 113A-73]
49 | > 7.00 | Cc1cc(Nc2nccc(C)n2)cc(-c2cnc(C3(O)CCC(C(=O)O)CC3C)s2)c1 (stereo not shown) [Example 113A-81]
50 | > 7.00 | Cc1cc(Nc2nccc(C)n2)cc(-c2cnc(C3(O)CCC(C(=O)O)CC3C)s2)c1 (stereo not shown) [Example 113A-82]
51 | > 7.00 | Cc1cc(Nc2nccc(C)n2)cc(-c2cnc(C3(O)CCC(C(=O)O)CC3C)s2)c1 (stereo not shown) [Example 113A-83]
52 | > 7.00 | Cc1cc(Nc2nccc(C)n2)cc(-c2cnc(C3(O)CCC(C(=O)O)CC3C)s2)c1 (stereo not shown) [Example 113A-84]
53 | > 7.00 | Cc1cc(Nc2nccc(C)n2)cc(-c2cnc(C3(O)CCC(C(=O)O)CC3C)s2)c1 (stereo not shown) [Example 113A-85]
54 | > 7.00 | Cc1cc(Nc2nccc(C)n2)cc(-c2cnc(C3(O)CCC(C(=O)O)CC3C)s2)c1 (stereo not shown) [Example 113A-86]
55 | > 7.00 | Cc1cc(Nc2nccc(C)n2)cc(-c2cnc(C3(O)CCC(C(=O)O)CC3O)s2)c1 (stereo not shown) [Example 113A-91]

same assay, conditions: read-out: rhSYK Activity; Table 113B

Row | pIC50 | Compound
56 | > 7.00 | Cc1cc(Nc2nccc(C)n2)cc(-c2cnc(C3(O)CC(C)C(C(=O)O)CC3C)s2)c1 (stereo not shown) [Example 113B-1]
57 | > 7.00 | Cc1cc(Nc2nccc(C)n2)cc(-c2cnc(C3(O)CC(C)C(C(=O)O)CC3C)s2)c1 (stereo not shown) [Example 113B-2]
58 | > 7.00 | Cc1cc(Nc2nccc(C)n2)cc(-c2cnc(C3(O)CC(C)C(C(=O)O)CC3C)s2)c1 (stereo not shown) [Example 113B-4]
59 | > 7.00 | Cc1cc(Nc2nccc(C)n2)cc(-c2cnc(C3(O)CC(C)C(C(=O)O)CC3C)s2)c1 (stereo not shown) [Example 113B-5]
60 | > 7.00 | Cc1cc(Nc2nccc(C)n2)cc(-c2cnc(C3(O)CC(C)C(C(=O)O)CC3C)s2)c1 (stereo not shown) [Example 113B-6]
61 | > 7.00 | Cc1cc(Nc2nccc(C(F)(F)F)n2)cc(-c2cnc(C3(O)CC(C)C(C(=O)O)CC3C)s2)c1 (stereo not shown) [Example 113B-13]
62 | > 7.00 | Cc1cc(Nc2nccc(C(F)(F)F)n2)cc(-c2cnc(C3(O)CC(C)C(C(=O)O)CC3C)s2)c1 (stereo not shown) [Example 113B-14]
63 | > 7.00 | Cc1cc(Nc2nccc(C(F)(F)F)n2)cc(-c2cnc(C3(O)CC(C)C(C(=O)O)CC3C)s2)c1 (stereo not shown) [Example 113B-15]
64 | > 7.00 | Cc1cc(Nc2nccc(C(F)(F)F)n2)cc(-c2cnc(C3(O)CC(C)C(C(=O)O)CC3C)s2)c1 (stereo not shown) [Example 113B-16]
65 | > 7.00 | Cc1cc(Nc2nccc(C)n2)cc(-c2cnc(C3(O)CC(C)C(C(=O)O)C(C)C3)s2)c1 (stereo not shown) [Example 113B-22]
66 | > 7.00 | Cc1cc(Nc2nccc(C(F)(F)F)n2)cc(-c2cnc(C3(O)CC(C)C(C(=O)O)C(C)C3)s2)c1 (stereo not shown) [Example 113B-25]

same assay, conditions: read-out: rhSYK Activity; Table 113D, upper part

Row | pIC50 | Compound
67 | > 7.00 | Cc1cc(Nc2nccc(C(F)(F)F)n2)cc(-c2cnc(C(C)(O)c3ccc(C(=O)O)cn3)s2)c1 (stereo not shown) [Example 113D-6]
